Data published in patent US12102631B2, “Quinolylnitrones for the treatment and prevention of a cerebral stroke or ischaemia” (ISQUAEMIA BIOTECH, S.L., priority 2018, dated 2024).

Tests used:
[1] = Interaction with the stable radical DPPH; type: biochemical; details: tested at 100 μM; reducing activity
Description: Interaction of the nitrone with the Stable Radical 1,1-diphenyl-picrylhydrazyl (DPPH) To a solution of DPPH in absolute ethanol the appropriate volume of the compounds (0.1 mM final concentrations) dissolved in DMSO was added. The absorbance was recorded at 517 nm after 20 and 60 min at room temperature (Table 1).
3.1. Antioxidant activity of QNs using radical DPPH. […] This purple colour generally disappears in the presence of an antioxidant due to the reduction of the DPPH radical by single electron transfer (SET) from the antioxidant converted it to colourless/bleached product. […] In this assay, we measured the initial absorbance of DPPH and the absorbance once the potential antioxidant was added. The antioxidant activity was expressed as the percentage of reducing activity.

[2] = Superoxide radical scavenging (hypoxanthine/xanthine oxidase system); type: biochemical; details: tested at 100 μM (0.1 mM)
Source text: 3.7. Superoxide radical scavenging activity. Superoxide anion radical (O2⋅−) is less toxic than hydroxyl radical, but still one of the most known harmful toxic ROS. In physiological conditions, superoxide dismutase catalyzes its conversion to H2O2, which is the precursor for the formation of hydroxyl radicals in the presence of iron ions.43 Superoxide anion radicals O2⋅− and H2O2 are ROS produced in vivo through a one-electron reduction process of O2. The evaluation of superoxide anion radical scavenging activity can be determined using assays involving non-enzymatic or enzymatic production of superoxide anions. In this assay, superoxide anion radicals were generated by a hypoxanthine and xanthine oxidase reaction system, and the O2⋅− scavenging activity (%) has been measured spectrophotometrically.

[3] = Hydroxyl radical scavenging (competition with DMSO); type: biochemical; details: tested at 100 μM
Description: Hydroxyl Radicals Scavenging Activity.^32 The hydroxyl radicals were produced by the Fe^3+/ascorbic acid system. EDTA (0.1 mM), Fe^3+ (167 μM), DMSO (33 mM) in phosphate buffer (50 mM, pH 7.4), the tested compounds (0.1 mM) and ascorbic acid (10 mM) were mixed in test tubes. The solutions were incubated at 37° C. for 30 min. The reaction was stopped by trichloroacetic acid (17% w/v) (Table 1) and the % scavenging activity of the tested compounds for hydroxyl radicals was given.
3.2. Competition of QNs with DMSO for hydroxyl radicals. Among the ROS, the hydroxyl (·OH) free radical is possibly the most toxic, as it easily reacts with biological important molecules such as DNA, lipids or carbohydrates. Polyunsaturated fatty acids are found in high concentrations in the CNS, and are particularly vulnerable to free radicals attack. Thus, we tried to test the ability of our compound to scavenge hydroxyl radicals. […] Antioxidants with lipophilic character are needed to act as radical scavengers or as chain-breaking antioxidants in biological membranes.

[4] = tested on: primary neuronal cultures from rat cerebral cortex; test: Neuroprotection (MTT cell viability) in primary neuronal cultures exposed to oxygen-glucose deprivation (OGD); type: cell-based; details: 24 h recovery after 4 h OGD; for neuronal viability compared with R24 h (in words): concentrations as stated or in FIG. 4
Description: Primary neuronal cultures. Primary neuronal cultures from rat cerebral cortex were prepared as previously described.^54 All procedures associated with animal experiments were approved by the Ethics Committee of the Hospital Ramón y Cajal, Madrid (Spain). Cell suspensions from cerebral cortex were prepared from 16- to 17-day-old Sprague-Dawley rat embryos. Living cells in cell suspension were counted by trypan blue exclusion method. Cells were seeded on plastic multidishes precoated with 0.05 mg/mL poly-D-lysine at a density of 2.5×10^5 cells/cm^2 and were kept at 37° C. in a 6.5% CO2 atmosphere in high glucose Dulbecco's medium supplemented with 15% heat-inactivated (56° C. for 30 min) foetal calf serum. After 24 h, cultured cells were […] to induce experimental ischemia.^23 Cultured cells were washed and placed in glucose-free Dulbecco's medium (bubbled with 95% N2/5% CO2 for 30 min), and maintained in a humidified hypoxia chamber equipped with an oxygen and carbon dioxide control unit (Biospherix) at 6.5% CO2 and <0.1% O2 in N2 at 37° C. Cells were exposed to OGD for a period of 4 h (OGD 4 h). At the end of the OGD period, culture medium was replaced with oxygenated serum-free medium, and cells were placed and maintained in the normoxic incubator for 24 h to recovery (R24 h). In the neuroprotection experiments, the compounds were added at the onset of recovery period. Control cultures in Dulbecco's medium containing glucose were kept in the normoxic incubator for the same period of time as the OGD, and then medium (Dulbecco's/Ham's F12, 1:1 [vol/vol], 5 mg/mL glucose, 2 mM L-glutamine, and 1 mM sodium pyruvate, and supplemented with 100 μg/mL transferrin, 100 μM putrescine, 20 nM progesterone, 30 nM sodium selenite and 5 μg/mL insulin). Here, 6-7 day old cultured neurons were used in the experiments, and contained 90% β-III-tubulin-positive mature neurons, as described previously.^55
Exposure of cell cultures to oxygen-glucose deprivation and treatments. Primary neuronal cultures were exposed to […]. Control experiments included the same amounts of vehicle (final concentration<0.5% ethanol). Nitrone 2 was used as reference compound for neuroprotection. The experimental procedures were blindly performed, assigning a random order to each assayed nitrone. Nitrones were analyzed independently four-eight times with different batch of cultures and each experiment was run in quadruplicate.
Cell viability assay. Cell viability was evaluated by quantification of living, metabolically active cells, as determined by a colorimetric assay using the photometric reduction of 3-(4,5-dimethylthiazol-2-yl)-2,5-diphenyl tetrazolium bromide (MTT) (Roche) to a blue formazan product. The assay of living, metabolically active cells was performed by incubating with 0.2 mg/mL MTT in the culture medium for 1.5 h in an incubator at 37° C. in a 6.5% CO2 atm. After the incubation period, cells were lysed with an equal volume of 10 mM HCl and 10% SDS overnight. Values were quantified by absorbance (test 595 nm, reference 690 nm). Decreased MTT activity denotes impairment of mitochondrial function and is considered to be an index of cell damage. Primary neuronal cultures were collected at times indicated for MTT determination.
Neuroprotection of compounds was evaluated by a cell viability assay. The neuroprotective effect of the compounds 5-32 was evaluated on primary neuronal cultures from cerebral cortex subjected to oxygen-glucose deprivation (OGD) to induce experimental ischemia. Afterwards, cultured neurons were placed and kept in normoxic and normoglycemic conditions to recovery. […]

[5] = Rattus norvegicus, R24 h = 0%, control = 100%

| SMILES | DPPH (%) [1] | O2*− (%) [2] | *OH (%) [3] [%] | neuronal viability compared with R24 h (in words) [4] | viability at 100 µM [4, 5] [%] | viability at 250 µM [4, 5] [%] | viability at 500 µM ([4]; Rattus norvegicus, 500 μM, R24 h = 0%, control = 100%) [%] | viability at 1 µM [4, 5] [%] | viability at 10 µM [4, 5] [%] | viability at 0.3 µM [4, 5] [%] |
| --- | --- | --- | --- | --- | --- | --- | --- | --- | --- | --- |
| CC(C)(C)/[N+]([O-])=C/c1ccc(S(=O)(=O)O)cc1S(=O)(=O)O [Compound 2, sodium (Z)-4-((tert-butyloxidoazanylidene)methyl)benzene-1,3-disulfonate, reference compound] | no | no activity and no | 94 | only produced a significant neuroprotective effect at 250 μM | 42.8 ± 2.31 | 52.9 ± 2.52 | 46.5 ± 1.1 |  |  |  |
| CC(C)(C)/[N+]([O-])=C/c1cc2ccccc2nc1Cl [Compound 18, (Z)—N-t-Butyl-1-(2-chloroquinolin-3-yl)methanimine oxide] | 7% | 16% | 97 |  | < 0 |  |  | 9.76 ± 0.84 | 29 ± 3.83 |  |
| CC(C)(C)/[N+]([O-])=C/c1cc2ccccc2[nH]c1=O [Compound 19, (Z)—N-tert-Butyl-1-(2-oxo-1,2-dihydroquinolin-3-yl)methanimine oxide] | no | 23% | 99 | significantly increased neuronal viability | 48.8 ± 2.29 | 55 ± 1.89 |  |  |  |  |
| COc1ccc2nc(Cl)c(/C=[N+](/C)[O-])cc2c1 [Compound 22, (Z)-1-(2-Chloro-6-methoxyquinolin-3-yl)-N-methylmethanimine oxide] | no | 29% | 100 |  | < 0 | < 0 |  | < 0 | < 0 | < 0 |
| COc1ccc2nc(Cl)c(/C=[N+](\[O-])C(C)(C)C)cc2c1 [Compound 23, (Z)—N-tert-Butyl-1-(2-chloro-6-methoxyquinolin-3-yl)methanimine oxide] | 4% | 5% | 100 | significantly increased neuronal viability | 77.1 ± 2.24 | 65.9 ± 2.87 |  |  | 52 ± 1.75 |  |
| COc1ccc2nc(Cl)c(/C=[N+](\[O-])Cc3ccccc3)cc2c1 [Compound 24, (Z)—N-Benzyl-1-(2-chloro-6-methoxyquinolin-3-yl)methanimine oxide] | 3% | 12.5% | 65 |  | 38.9 ± 1.31 |  |  | 31.3 ± 1.38 | 29.7 ± 1.38 | < 0 |
| COc1ccc2nc(Cl)c(C=O)cc2c1 [Compound 32, 2-chloro-6-methoxyquinoline-3-carbaldehyde, reference compound] | 1% | 23% | 89 | nor carbaldehyde 32, the precursor of potent QN 23, showed neuroprotective activity | < 0 |  |  | < 0 | < 0 |  |
